System: KRas G12D-mediated phosphorylation of ERK
Experiment: Inhibition of KRas G12D-mediated phosphorylation of ERK in AGS cells
Type: cell-based
Conditions: Homo sapiens; AGS cells expressing G12D, 3 hours, phospho-ERK normalized to GAPDH
Summary of the method: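 In-cell Western: p-ERK Thr202/Tyr204 signal over GAPDH, as % of DMSO control, with IC50 from a 4-parameter curve. AGS cells seeded 40,000/well for 12-14 h, exposed to compound 3 h at 0.5% DMSO final, then formaldehyde-fixed and methanol-permeabilized.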

| Compound | IC50 [µM] |
| --- | --- |
| Oc1cc(-c2ncc3c(N4C[C@H]5CC[C@@H](C4)N5)nc(OC[C@@]45CCCN4C[C@H](F)C5)nc3c2F)c2c(F)cccc2c1 [Example 282, 4-(4-((1R,5S)-3,8-diazabicyclo[3.2.1]octan-3-yl)-8-fluoro-2-(((2R,7aS)-2-fluorohexahydro-1H-pyrrolizin-7a-yl)methoxy)pyrido[4,3-d]pyrimidin-7-yl)-5-fluoronaphthalen-2-ol] | 0.0049 |
| Oc1cc(Cl)c(C2CC2)c(-c2ncc3c(N4C[C@H]5CC[C@@H](C4)N5)nc(OC[C@@]45CCCN4C[C@H](F)C5)nc3c2F)c1 [Example 283, 3-(4-((1R,5S)-3,8-diazabicyclo[3.2.1]octan-3-yl)-8-fluoro-2-(((2R,7aS)-2-fluorohexahydro-1H-pyrrolizin-7a-yl)methoxy)pyrido[4,3-d]pyrimidin-7-yl)-5-chloro-4-cyclopropylphenol] | 0.007 |
| Oc1cc(Cl)c(C(F)(F)F)c(-c2ncc3c(N4C[C@H]5CC[C@@H](C4)N5)nc(OC[C@@]45CCCN4C[C@H](F)C5)nc3c2F)c1 [Example 284, 3-(4-((1R,5S)-3,8-diazabicyclo[3.2.1]octan-3-yl)-8-fluoro-2-(((2R,7aS)-2-fluorohexahydro-1H-pyrrolizin-7a-yl)methoxy)pyrido[4,3-d]pyrimidin-7-yl)-5-chloro-4-(trifluoromethyl)phenol] | 0.0174 |
| C[C@@H]1C[C@@H]1c1ccccc1-c1ncc2c(N3C[C@H]4CC[C@@H](C3)N4)nc(OCC34CCCN3CCC4)nc2c1F [Example 286, 4-((1R,5S)-3,8-diazabicyclo[3.2.1]octan-3-yl)-8-fluoro-2-((hexahydro-1H-pyrrolizin-7a-yl)methoxy)-7-(2-((1S,2R)-2-methylcyclopropyl)phenyl)pyrido[4,3-d]pyrimidine] | 1.73 |
| C[C@H]1C[C@H]1c1ccccc1-c1ncc2c(N3C[C@H]4CC[C@@H](C3)N4)nc(OCC34CCCN3CCC4)nc2c1F [Example 287, 4-((1R,5S)-3,8-diazabicyclo[3.2.1]octan-3-yl)-8-fluoro-2-((hexahydro-1H-pyrrolizin-7a-yl)methoxy)-7-(2-((1R,2S)-2-methylcyclopropyl)phenyl)pyrido[4,3-d]pyrimidine] | 8.07 |
| CC(C)c1c(F)cc(O)cc1-c1ncc2c(N3C[C@H]4CC[C@@H](C3)N4)nc(OC[C@@]34CCCN3C[C@H](F)C4)nc2c1F [Example 290, 3-(4-((1R,5S)-3,8-diazabicyclo[3.2.1]octan-3-yl)-8-fluoro-2-(((2R,7aS)-2-fluorotetrahydro-1H-pyrrolizin-7a(5H)-yl)methoxy)pyrido[4,3-d]pyrimidin-7-yl)-5-fluoro-4-isopropylphenol] | 0.111 |
| CC(C)c1c(Cl)cc(O)cc1-c1ncc2c(N3C[C@H]4CC[C@@H](C3)N4)nc(OC[C@@]34CCCN3C[C@H](F)C4)nc2c1F [Example 291, 3-(4-((1R,5S)-3,8-diazabicyclo[3.2.1]octan-3-yl)-8-fluoro-2-(((2R,7aS)-2-fluorohexahydro-1H-pyrrolizin-7a-yl)methoxy)pyrido[4,3-d]pyrimidin-7-yl)-5-chloro-4-isopropylphenol] | 0.0465 |
| Fc1cccc(-c2ncc3c(N4C[C@H]5CC[C@@H](C4)N5)nc(OCC45CCCN4CCC5)nc3c2F)c1C(F)(F)F [Example 292, 4-((1R,5S)-3,8-diazabicyclo[3.2.1]octan-3-yl)-8-fluoro-7-(3-fluoro-2-(trifluoromethyl)phenyl)-2-((tetrahydro-1H-pyrrolizin-7a(5H)-yl)methoxy)pyrido[4,3-d]pyrimidine] | 1.7 |
| CN(C)c1ccccc1-c1ncc2c(N3C[C@H]4CC[C@@H](C3)N4)nc(OCC34CCCN3CCC4)nc2c1F [Example 296, 2-(4-((1R,5S)-3,8-diazabicyclo[3.2.1]octan-3-yl)-8-fluoro-2-((hexahydro-1H-pyrrolizin-7a-yl)methoxy)pyrido[4,3-d]pyrimidin-7-yl)-N,N-dimethylaniline] | 8.47 |
| Fc1c(-c2ccccc2C2CC2)ncc2c(N3C[C@H]4CC[C@@H](C3)N4)nc(OCC34CCCN3CCC4)nc12 [Example 297, 4-((1R,5S)-3,8-diazabicyclo[3.2.1]octan-3-yl)-7-(2-cyclopropylphenyl)-8-fluoro-2-((hexahydro-1H-pyrrolizin-7a-yl)methoxy)pyrido[4,3-d]pyrimidine] | 6.56 |
| CC(C)c1c(Cl)cccc1-c1ncc2c(N3C[C@H]4CC[C@@H](C3)N4)nc(OCC34CCCN3CCC4)nc2c1F [Example 298, 4-((1R,5S)-3,8-diazabicyclo[3.2.1]octan-3-yl)-7-(3-chloro-2-isopropylphenyl)-8-fluoro-2-((hexahydro-1H-pyrrolizin-7a-yl)methoxy)pyrido[4,3-d]pyrimidine] | 1.23 |
| CC(C)c1c(F)cccc1-c1ncc2c(N3C[C@H]4CC[C@@H](C3)N4)nc(OCC34CCCN3CCC4)nc2c1F [Example 299, 4-((1R,5S)-3,8-diazabicyclo[3.2.1]octan-3-yl)-8-fluoro-7-(3-fluoro-2-isopropylphenyl)-2-((hexahydro-1H-pyrrolizin-7a-yl)methoxy)pyrido[4,3-d]pyrimidine] | > 5.56 |
| Cc1cccc(-c2ncc3c(N4C[C@H]5CC[C@@H](C4)N5)nc(OCC45CCCN4CCC5)nc3c2F)c1C(C)C [Example 301, 4-((1R,5S)-3,8-diazabicyclo[3.2.1]octan-3-yl)-8-fluoro-2-((hexahydro-1H-pyrrolizin-7a-yl)methoxy)-7-(2-isopropyl-3-methylphenyl)pyrido[4,3-d]pyrimidine] | 3.17 |
| Fc1cccc(-c2ncc3c(N4C[C@H]5CC[C@@H](C4)N5)nc(OCC45CCCN4CCC5)nc3c2F)c1OC(F)F [Example 302, 4-((1R,5S)-3,8-diazabicyclo[3.2.1]octan-3-yl)-7-(2-(difluoromethoxy)-3-fluorophenyl)-8-fluoro-2-((hexahydro-1H-pyrrolizin-7a-yl)methoxy)pyrido[4,3-d]pyrimidine] | 1.99 |
| Fc1cccc(-c2ncc3c(N4C[C@H]5CC[C@@H](C4)N5)nc(OCC45CCCN4CCC5)nc3c2F)c1C1CC1 [Example 304, 4-((1R,5S)-3,8-diazabicyclo[3.2.1]octan-3-yl)-7-(2-cyclopropyl-3-fluorophenyl)-8-fluoro-2-((hexahydro-1H-pyrrolizin-7a-yl)methoxy)pyrido[4,3-d]pyrimidine] | 1.42 |
| CN(C)Cc1ccc(COCCNC(=O)O[C@@H]2C[C@@H](COc3nc(N4C[C@H]5CC[C@@H](C4)N5)c4cnc(-c5cccc6cccc(Cl)c56)c(F)c4n3)N(C)C2)cc1 [Example 308, (3R,5S)-5-(((4-((1R,5S)-3,8-diazabicyclo[3.2.1]octan-3-yl)-7-(8-chloronaphthalen-1-yl)-8-fluoropyrido[4,3-d]pyrimidin-2-yl)oxy)methyl)-1-methylpyrrolidin-3-yl (2-((4-((dimethylamino)methyl)benzyl)oxy)ethyl)carbamate] | > 5.56 |
| CCc1c(Cl)cccc1-c1ncc2c(N3C[C@H]4CC[C@@H](C3)N4)nc(OCC34CCCN3CCC4)nc2c1F [Example 312, 4-((1R,5S)-3,8-diazabicyclo[3.2.1]octan-3-yl)-7-(3-chloro-2-ethylphenyl)-8-fluoro-2-((hexahydro-1H-pyrrolizin-7a-yl)methoxy)pyrido[4,3-d]pyrimidine] | 1.88 |
| CCc1c(F)ccc2cc(O)cc(-c3ncc4c(N5C[C@H]6CC[C@@H](C5)N6)nc(OCC56CCCN5CCC6)nc4c3F)c12 [Example 314, 4-(4-((1R,5S)-3,8-diazabicyclo[3.2.1]octan-3-yl)-8-fluoro-2-((hexahydro-1H-pyrrolizin-7a-yl)methoxy)pyrido[4,3-d]pyrimidin-7-yl)-5-ethyl-6-fluoronaphthalen-2-ol] | 0.0037 |
| Cc1ccc2cccc(-c3ncc4c(N5C[C@H]6CC[C@@H](C5)N6)nc(OC[C@@H]5CCCN5C)nc4c3F)c2c1 [Example 321, 4-((1R,5S)-3,8-diazabicyclo[3.2.1]octan-3-yl)-8-fluoro-7-(7-methylnaphthalen-1-yl)-2-(((S)-1-methylpyrrolidin-2-yl)methoxy)pyrido[4,3-d]pyrimidine] | > 16.7 |
| Fc1c(-c2cccc(Cl)c2C2CC2)ncc2c(N3C[C@H]4CC[C@@H](C3)N4)nc(OCC34CCCN3CCC4)nc12 [Example 322, 4-((1R,5S)-3,8-diazabicyclo[3.2.1]octan-3-yl)-7-(3-chloro-2-cyclopropylphenyl)-8-fluoro-2-((tetrahydro-1H-pyrrolizin-7a(5H)-yl)methoxy)pyrido[4,3-d]pyrimidine] | 0.665 |
| Fc1c(-c2cccc(Cl)c2C(F)(F)F)ncc2c(N3C[C@H]4CC[C@@H](C3)N4)nc(OCC34CCCN3CCC4)nc12 [Example 328, 4-((1R,5S)-3,8-diazabicyclo[3.2.1]octan-3-yl)-7-(3-chloro-2-(trifluoromethyl)phenyl)-8-fluoro-2-((tetrahydro-1H-pyrrolizin-7a(5H)-yl)methoxy)pyrido[4,3-d]pyrimidine] | 0.897 |
| Cc1ccc2[nH]ncc2c1-c1ncc2c(N3C[C@H]4CC[C@@H](C3)N4)nc(OCC34CCCN3CCC4)nc2c1F [Example 332, 4-((1R,5S)-3,8-diazabicyclo[3.2.1]octan-3-yl)-8-fluoro-7-(5-methyl-1H-indazol-4-yl)-2-((tetrahydro-1H-pyrrolizin-7a(5H)-yl)methoxy)pyrido[4,3-d]pyrimidine] | > 16.7 |
| Cc1cccc2cccc(-c3ncc4c(N5C[C@H]6CC[C@@H](C5)N6)nc(OCC56CCCN5CCC6)nc4c3F)c12 [Example 334, 4-((1R,5S)-3,8-diazabicyclo[3.2.1]octan-3-yl)-8-fluoro-7-(8-methylnaphthalen-1-yl)-2-((tetrahydro-1H-pyrrolizin-7a(5H)-yl)methoxy)pyrido[4,3-d]pyrimidine] | 2.91 |
| Fc1c(-c2cccc3cccc(C4CC4)c23)ncc2c(N3C[C@H]4CC[C@@H](C3)N4)nc(OCC34CCCN3CCC4)nc12 [Example 335, 4-((1R,5S)-3,8-diazabicyclo[3.2.1]octan-3-yl)-7-(8-cyclopropylnaphthalen-1-yl)-8-fluoro-2-((tetrahydro-1H-pyrrolizin-7a(5H)-yl)methoxy)pyrido[4,3-d]pyrimidine] | 10.4 |
